The numbers were not newly measured in patent US20230340373A1, “CLEANING WIPES” (Tygrus LLC, priority 2022, published 2023), which cites them from elsewhere.

The conditions of the data set: 25 C; cited from earlier work.

Consider `C=CCc1ccc(O)c(OC)c1` [Eugenol], for which the pKa is recorded as 10.19.

One may read the pKa as the negative logarithm of the acid dissociation constant.
